In patent US20110046056A1, “APOA-1 PEPTIDE MIMETICS” (priority 2007, published 2011):
*1 amine or outer side, *2 acyl side, *3 side chain or, on linkers, in order; H or OH if unused. Where a SMILES comes first, the peptide text is derived from it. Bridges are numbered along the chain shown (N, C = ends). Where no end group is shown, it is not given here. [ ]: non-standard residue; d: D form. dNle(6-ylidene) = O=C([C@@H](CCCC=[*:3])N[*:1])[*:2]; X2 = O=C([C@@H](CCCCC=[*:3])N[*:1])[*:2]; X3 = O=C([C@H](CCCCCC=[*:3])N[*:1])[*:2]; Ala(5-hexenyl) = C=CCCCCC[C@H](N)C(=O)O; dNle(6-vinyl) = C=CCCCC[C@@H](N)C(=O)O; Gla = N[C@@H](CC(C(=O)O)C(=O)O)C(=O)O; R5 = C=CCCC[C@@](C)(N)C(=O)O; 12H3 = not defined here

Columns and labels:
human red blood cells = assay: Red blood cell (RBC) lysis assay; type: cell-based
Procedure: The RBC lysis assay has been described previously (Kurtz, M. B. et al. (1994); Wang, J. et al., PNAS 104 (18), 7612-7616 (2007)). Basically, human erythrocytes are collected in a vacutainer tube with EDTA from human donors. Two ml of the freshly drawn whole blood is added to 6 ml of sterile saline and gently mixed then centrifuged at 5° C. for 5 minutes at 2000 rpm. The supernatant is discarded and the human red blood cells are resuspended with 6 ml of sterile saline and centrifuged again at 5° C. for 5 minutes at 2000 rpm. This procedure is repeated 2 times. A three percent suspension of the washed red blood cells is prepared by adding 0.3 ml of the washed red blood cells to 9.7 ml of sterile saline. The final concentration of test peptide ranging 160-2.5 (or 150-2.3) μM in 100 μl sterile saline containing 3.2% Me2SO is prepared in 96-well MICROTEST U-bottom plates (BECTON DICKINSON, BD-353227). The RBC lysis is initiated by addition of 5 μl of 3% washed human red blood cell suspension to the each well in the plates. The plates are incubated overnight at room temperature, then centrifuged at 2000 rpm for 5 minutes and read immediately. Hemolysis of red blood cells is indicated by complete or partial clearing (lysis) of the supernatants with either no or a rough RBC pellet in the bottom of the wells. […]

[1] = Lipid (liposome) solubilization, turbidimetric method; type: biochemical; conditions: for IC50: read-out: IC50 in the liposome solubilization assay; for LIPID SOLUBILIZATION IC50: Measured at 2 h
Procedure: As noted above, the other important parameter was phospholipid solubilization. A turbidimetric method is used to determine the solubilization capacity of peptides of the present invention. First, a three-fold serial titration of the peptide is prepared in a polypropylene v-shaped 96-well plate. The eight-point titration is done in phosphate-buffered saline (PBS, pH 7.5) or DMSO from a starting concentration that allows for addition to an optically-clear bottomed assay plate in <100 μl aliquots to yield a starting concentration of 500 μM in 200 μl final well volume. PBS is then added to each well to bring the total volume to 100 μl. Any bubbles in the wells must be dispersed to avoid erroneous results. Next, from a turbid but homogeneous emulsion of dimyristoyl phosphatidylcholine at 0.5 mg/ml in PBS, 100 μl is added to each well in the assay plate, the plate is inserted into the NEPHELOSTAR (BMG LABTECH INSTRUMENTS), and readings are taken immediately and every 15 minutes over 2 hours.
A true 0-point value is calculated by averaging the readings of the wells with phospholipid but no peptide. For each peptide concentration, a percent decrease in turbidity is calculated by subtracting the 0-point value from the corresponding 30 and 120 minute readings and dividing by that 0-point value. Finally the EC50 values for both time points are determined using PRISM software (Table 2).

[2] = biological target: T1, ABCA1 cholesterol transporter protein (Mus musculus, UniProt P41233); assay: ABCA1-dependent cholesterol efflux from RAW mouse macrophage cells (in vitro RCT assay); type: cell-based; conditions: for EC50: read-out: EC50 in the cholesterol efflux assay (RCT in vitro assay)
T1 construct: endogenous in cells
T1 sequence (P41233 whole entry): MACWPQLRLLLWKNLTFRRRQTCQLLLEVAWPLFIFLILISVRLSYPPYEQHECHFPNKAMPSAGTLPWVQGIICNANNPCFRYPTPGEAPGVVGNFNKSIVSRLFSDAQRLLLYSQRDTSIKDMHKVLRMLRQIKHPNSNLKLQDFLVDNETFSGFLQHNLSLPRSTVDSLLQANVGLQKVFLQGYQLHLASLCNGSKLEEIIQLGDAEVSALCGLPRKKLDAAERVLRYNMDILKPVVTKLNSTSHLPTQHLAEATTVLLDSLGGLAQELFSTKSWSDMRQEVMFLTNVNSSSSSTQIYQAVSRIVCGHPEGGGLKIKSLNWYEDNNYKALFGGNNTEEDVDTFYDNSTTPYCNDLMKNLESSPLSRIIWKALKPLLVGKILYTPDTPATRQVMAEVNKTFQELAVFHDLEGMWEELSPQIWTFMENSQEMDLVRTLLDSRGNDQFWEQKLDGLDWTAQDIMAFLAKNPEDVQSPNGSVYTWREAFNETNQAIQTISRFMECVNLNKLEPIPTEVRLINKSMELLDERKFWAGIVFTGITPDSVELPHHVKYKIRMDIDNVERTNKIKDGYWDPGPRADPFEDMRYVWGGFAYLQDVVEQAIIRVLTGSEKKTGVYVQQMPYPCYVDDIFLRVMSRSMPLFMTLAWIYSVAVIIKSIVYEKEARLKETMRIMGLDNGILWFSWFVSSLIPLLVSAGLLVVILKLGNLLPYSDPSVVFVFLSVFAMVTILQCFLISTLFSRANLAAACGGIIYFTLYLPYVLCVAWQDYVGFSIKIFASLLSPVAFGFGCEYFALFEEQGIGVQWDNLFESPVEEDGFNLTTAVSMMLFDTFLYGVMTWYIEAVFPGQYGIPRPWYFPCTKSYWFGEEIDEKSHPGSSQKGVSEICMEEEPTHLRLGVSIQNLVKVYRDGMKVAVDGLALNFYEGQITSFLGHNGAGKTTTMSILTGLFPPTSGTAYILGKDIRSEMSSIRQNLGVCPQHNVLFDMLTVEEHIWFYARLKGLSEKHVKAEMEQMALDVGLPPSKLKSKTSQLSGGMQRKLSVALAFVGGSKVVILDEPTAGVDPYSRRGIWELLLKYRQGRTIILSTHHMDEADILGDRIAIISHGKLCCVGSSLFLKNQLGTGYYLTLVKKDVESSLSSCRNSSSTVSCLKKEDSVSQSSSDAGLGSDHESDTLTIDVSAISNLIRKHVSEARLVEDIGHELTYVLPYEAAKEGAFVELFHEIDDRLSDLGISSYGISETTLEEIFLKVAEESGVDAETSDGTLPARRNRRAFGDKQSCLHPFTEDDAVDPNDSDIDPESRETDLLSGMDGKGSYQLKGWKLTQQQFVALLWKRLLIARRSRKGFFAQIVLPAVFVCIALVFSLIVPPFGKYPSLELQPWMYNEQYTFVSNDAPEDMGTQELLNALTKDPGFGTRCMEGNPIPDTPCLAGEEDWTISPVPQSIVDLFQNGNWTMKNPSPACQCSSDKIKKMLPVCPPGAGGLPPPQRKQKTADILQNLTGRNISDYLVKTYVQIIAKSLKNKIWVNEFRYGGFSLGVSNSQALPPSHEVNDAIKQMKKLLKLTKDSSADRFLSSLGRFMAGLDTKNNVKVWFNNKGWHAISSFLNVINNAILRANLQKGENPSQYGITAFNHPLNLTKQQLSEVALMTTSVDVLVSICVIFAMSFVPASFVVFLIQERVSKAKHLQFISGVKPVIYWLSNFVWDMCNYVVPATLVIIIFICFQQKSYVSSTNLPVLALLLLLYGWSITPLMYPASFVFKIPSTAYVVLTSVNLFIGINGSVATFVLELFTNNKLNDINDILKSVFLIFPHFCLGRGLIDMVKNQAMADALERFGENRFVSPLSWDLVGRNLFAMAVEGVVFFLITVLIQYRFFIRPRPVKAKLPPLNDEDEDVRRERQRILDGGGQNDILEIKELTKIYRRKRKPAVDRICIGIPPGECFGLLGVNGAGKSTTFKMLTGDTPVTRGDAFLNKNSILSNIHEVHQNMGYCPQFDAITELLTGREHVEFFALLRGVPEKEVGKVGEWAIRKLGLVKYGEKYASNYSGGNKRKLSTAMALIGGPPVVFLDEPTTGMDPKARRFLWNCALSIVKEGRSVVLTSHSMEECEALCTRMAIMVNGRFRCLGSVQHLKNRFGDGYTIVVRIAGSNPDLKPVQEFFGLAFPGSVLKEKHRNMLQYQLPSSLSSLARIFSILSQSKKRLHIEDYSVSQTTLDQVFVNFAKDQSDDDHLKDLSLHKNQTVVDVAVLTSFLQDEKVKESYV
Outline: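 RAW macrophages labelled with ^3H-cholesterol (5 μCi/ml) 24 h, equilibrated overnight serum-free, then given eight-point peptide titrations 24 h with or without 150 μM CPT-cAMP. Percent efflux = medium counts/(medium + lysate); plain-medium efflux subtracted from cAMP value gives ABCA1-dependent efflux, fitted for EC50.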

[3] = test system: atheroma in ApoE-deficient mice; assay: Atheroma volume in ApoE-deficient mice by magnetic resonance imaging; type: in vivo, mouse; conditions: 20 mg per kg subcutaneously once daily; after 5 weeks of treatment; compared to vehicle-treated apoE-deficient mice; MRI
Text: The ultimate goal of developing these mimetic peptides was for the acute and chronic treatment of atherosclerotic lesions in human patients.

[4] = biological target: T2, ATP-binding cassette transporter A1 (ABCA1) (mouse, UniProt P41233 1-2261); assay: cell-based or functional assay
T2 sequence (P41233 whole entry): as above

[5] = biological target: T2, ATP-binding cassette transporter A1 …; assay: cell-based or functional assay; remark: listed apart in the source

O=C(N[C@H](CO)[C@H](O)c1ccc([N+](=O)[O-])cc1)C(Cl)Cl [Chloramphenicol]
minimum lytic concentration (MLC) (human red blood cells): > 64 µg/mL

C=CCCCCC[C@H](NC(=O)[C@H](CCC(=O)O)NC(=O)[C@H](CC(=O)O)NC(=O)[C@H](CC(C)C)NC(=O)[C@@H](NC(=O)[C@@H]1CCCN1C(C)=O)C(C)C)C(=O)N[C@@H](CCCNC(=N)N)C(=O)N[C@@H](CCC(=O)O)C(=O)N[C@@H](CCCCN)C(=O)N[C@@H](CC(C)C)C(=O)N[C@@H](CC(N)=O)C(=O)N[C@@H](CCC(=O)O)C(=O)N[C@H](CCCCC=C)C(=O)N[C@@H](CC(C)C)C(=O)N[C@@H](CCC(=O)O)C(=O)N[C@@H](C)C(=O)N[C@@H](CC(C)C)C(=O)N[C@@H](CCCCN)C(=O)N[C@@H](CCC(N)=O)C(=O)N[C@@H](CCCCN)C(=O)N[C@@H](CC(C)C)C(=O)N[C@@H](CCCCN)C(N)=O [SEQ ID NO 10, PVLDES7HREKLNER6HLEALKQKLK] (Ac-PVLDE[Ala(5-hexenyl)]REKLNE[dNle(6-vinyl)]LEALKQKLK-NH2; C-terminus assumed)
IC50 [1]: 44 µM | EC50 [2]: 1200 nM

CC(=O)N1CCC[C@H]1C(=O)N[C@H](C(=O)N[C@@H](CC(C)C)C(=O)N[C@@H](CC(=O)O)C(=O)N[C@@H](CCC(=O)O)C(=O)N[C@@H](Cc1ccccc1)C(=O)N[C@@H](CCCNC(=N)N)C(=O)N[C@@H](CCC(=O)O)C(=O)N[C@@H]1CCCC=CCCC[C@H](C(=O)N[C@@H](CC(C)C)C(=O)N[C@@H](CCC(=O)O)C(=O)N[C@@H](C)C(=O)N[C@@H](CC(C)C)C(=O)N[C@@H](CCCCN)C(=O)N[C@@H](CCC(N)=O)C(=O)N[C@@H](CCCCN)C(=O)N[C@@H](CC(C)C)C(=O)N[C@@H](CCCCN)C(N)=O)NC(=O)[C@H](CCC(=O)O)NC(=O)[C@H](CC(N)=O)NC(=O)[C@H](CC(C)C)NC1=O)C(C)C [SEQ ID NO 12, PVLDEFRER5HLNER5HLEALKQKLK (CYCLO R5H9-R5H13)] (Ac-PVLDEFRE[dNle(6-ylidene)]LNE[dNle(6-ylidene)]LEALKQKLK-NH2; staple 9-13; C-terminus assumed)
IC50 [1]: 60 µM | EC50 [2]: 10000 nM

CC(=O)N1CCC[C@H]1C(=O)N[C@H](C(=O)N[C@@H](CC(C)C)C(=O)N[C@@H](CC(=O)O)C(=O)N[C@@H](CCC(=O)O)C(=O)N[C@@H]1CCCCC=CCCCCC[C@@H](C(=O)N[C@@H](CC(C)C)C(=O)N[C@@H](CCC(=O)O)C(=O)N[C@@H](C)C(=O)N[C@@H](CC(C)C)C(=O)N[C@@H](CCCCN)C(=O)N[C@@H](CCC(N)=O)C(=O)N[C@@H](CCCCN)C(=O)N[C@@H](CC(C)C)C(=O)N[C@@H](CCCCN)C(N)=O)NC(=O)[C@H](CCC(=O)O)NC(=O)[C@H](CC(N)=O)NC(=O)[C@H](CC(C)C)NC(=O)[C@H](CCCCN)NC(=O)[C@H](CCC(=O)O)NC(=O)[C@H](CCCNC(=N)N)NC1=O)C(C)C [SEQ ID NO 14, PVLDER6HREKLNES7HLEALKQKLK (CYCLO R6H6-S7H13)] (Ac-PVLDE[X2]REKLNE[X3]LEALKQKLK-NH2; staple 6-13; C-terminus assumed)
IC50 [1]: 43 µM | EC50 [2]: 2000 nM

C=CCCCCC[C@H](NC(=O)[C@H](CCC(=O)O)NC(=O)[C@H](CC(N)=O)NC(=O)[C@H](CC(C)C)NC(=O)[C@H](CCCCN)NC(=O)[C@H](CCC(=O)O)NC(=O)[C@H](CCCNC(=N)N)NC(=O)[C@H](CCCCCC=C)NC(=O)[C@H](CCC(=O)O)NC(=O)[C@H](CC(=O)O)NC(=O)[C@H](CC(C)C)NC(=O)[C@@H](NC(=O)[C@@H]1CCCN1C(C)=O)C(C)C)C(=O)N[C@@H](CC(C)C)C(=O)N[C@@H](CCC(=O)O)C(=O)N[C@@H](C)C(=O)N[C@@H](CC(C)C)C(=O)N[C@@H](CCCCN)C(=O)N[C@@H](CCC(N)=O)C(=O)N[C@@H](CCCCN)C(=O)N[C@@H](CC(C)C)C(=O)N[C@@H](CCCCN)C(N)=O [SEQ ID NO 43, PVLDES7HREKLNES7HLEALKQKLK] (Ac-PVLDE[Ala(5-hexenyl)]REKLNE[Ala(5-hexenyl)]LEALKQKLK-NH2; C-terminus assumed)
EC50 [2]: 300 nM | atheroma volume [3]: significant reduction

CC(=O)N1CCC[C@H]1C(=O)N[C@H](C(=O)N[C@@H](CC(C)C)C(=O)N[C@@H](CC(=O)O)C(=O)N[C@@H](CCC(=O)O)C(=O)N[C@@H](Cc1ccccc1)C(=O)N[C@@H](CCCNC(=N)N)C(=O)N[C@@H](CC(C(=O)O)C(=O)O)C(=O)N[C@@H](CCCCN)C(=O)N[C@@H](CC(C)C)C(=O)N[C@@H](CC(N)=O)C(=O)N[C@@H](CCC(=O)O)C(=O)N[C@@H](C)C(=O)N[C@@H](CC(C)C)C(=O)N[C@@H](CCC(=O)O)C(=O)N[C@@H](C)C(=O)N[C@@H](CC(C)C)C(=O)N[C@@H](CCCCN)C(=O)N[C@@H](CCC(N)=O)C(=O)N[C@@H](CCCCN)C(=O)N[C@@H](CC(C)C)C(=O)N[C@@H](CCCCN)C(N)=O)C(C)C [compound 3] (Ac-PVLDEFR[Gla]KLNEALEALKQKLK-NH2; C-terminus assumed)
LIPID SOLUBILIZATION IC50 [1]: NOT ACTIVE

Ac-PVLDEFREKLNEELEALKQKLK-NH2 [SEQ ID NO 1, reference compound]
lipid binding / ability to clear liposome turbidity, in words [1]: inactive | activity in the cholesterol efflux / in vitro RCT assay, in words [2]: inactive

PVLDEFREKLNEELEALKQKLK [compound 1]
LIPID SOLUBILIZATION IC50 [1]: NOT ACTIVE | ABCA1-DEPENDENT CHOLESTEROL EFFLUX EC50 ([2]; RAW cells, cAMP-stimulated minus plain medium efflux): NOT ACTIVE

PVLDEFRER5MELNER5MELEALKQKLK (Ac-PVLDEFRE[R5]LNE[R5]LEALKQKLK; not fully specified (C-terminus); bridges not given here) [SEQ ID NO 16]
lipid binding / ability to clear liposome turbidity, in words [1]: good lipid binding | activity in the cholesterol efflux / in vitro RCT assay, in words [2]: very low to no activity

PVLDEFRES5HLNES5HLEALKQKLK (Ac-PVLDEFRE[S5H]LNE[S5H]LEALKQKLK; not fully specified (C-terminus)) [SEQ ID NO 15]
lipid binding / ability to clear liposome turbidity, in words [1]: good lipid binding | activity in the cholesterol efflux / in vitro RCT assay, in words [2]: very low to no activity

B1: CONS[(RS)12H3^13] (peptide)
peptide: Ac-PVLDEFREKLNE[12H3]LEALKQKLK
modifications: not fully specified (C-terminus); printed as PVLDEFREKLNE-(RS)12H3-LEALKQKLK; reading uncertain
EC50 in the RCT in vitro assay [4]: 200 to 400 nM

Ac-PVLDEFREKLNE[Ala(5-hexenyl)]LEALKQKLK [CONS[S7H^13]]
EC50 in the RCT in vitro assay [4]: 1600 nM | EC50 in the cholesterol efflux assay [4]: 2.8 µM | ABCA1-dependent cholesterol efflux EC50 [5]: 2 µM

Ac-PVLDE[Ala(5-hexenyl)]REKLNE[dNle(6-vinyl)]LEALKQKLK [S7H [F6-E13]R6H OPEN]
EC50 in the cholesterol efflux assay [4]: 1.2 µM | ABCA1-dependent cholesterol efflux EC50 [5]: 1.3 µM
